Measured values as given in patent US10118916B2, “Modulators of cystic fibrosis transmembrane conductance regulator protein” (AbbVie S.à.r.l., priority 2016, dated 2018).

Target: T1, F508delCFTR (Homo sapiens, UniProt P13569, DEL508-508)
T1 construct: expressed in transfected cells; host or cells: CFBE41o- (human lung derived epithelial cell line), doxycycline-inducible
Test: Cell Surface Expression-Horse Radish Peroxidase (CSE-HRP) assay
Assay type: cell-based
Conditions: CFBE41o-F508delCFTR-HRP cells; for EC50: F508delCFTR cell surface expression, luminescence, 18-24 hours at 33° C., highest concentration 20 μM; for Maximum % activity: maximum at any tested concentration, normalized to on-plate positive control (3 μM)
In short: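 CFBE41o- cells expressing doxycycline-induced (0.5 μg/mL, 72 h at 37 °C) F508delCFTR with HRP in the fourth extracellular loop; compounds 8 points, 3-fold from 20 μM, 18-24 h at 33 °C. Surface HRP measured by luminol luminescence, normalised to DMSO and 3 μM reference corrector; EC50 from variable-slope sigmoidal fit of triplicate plates.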

T1 sequence (P13569 with tags, fused parts or gaps DEL508-508): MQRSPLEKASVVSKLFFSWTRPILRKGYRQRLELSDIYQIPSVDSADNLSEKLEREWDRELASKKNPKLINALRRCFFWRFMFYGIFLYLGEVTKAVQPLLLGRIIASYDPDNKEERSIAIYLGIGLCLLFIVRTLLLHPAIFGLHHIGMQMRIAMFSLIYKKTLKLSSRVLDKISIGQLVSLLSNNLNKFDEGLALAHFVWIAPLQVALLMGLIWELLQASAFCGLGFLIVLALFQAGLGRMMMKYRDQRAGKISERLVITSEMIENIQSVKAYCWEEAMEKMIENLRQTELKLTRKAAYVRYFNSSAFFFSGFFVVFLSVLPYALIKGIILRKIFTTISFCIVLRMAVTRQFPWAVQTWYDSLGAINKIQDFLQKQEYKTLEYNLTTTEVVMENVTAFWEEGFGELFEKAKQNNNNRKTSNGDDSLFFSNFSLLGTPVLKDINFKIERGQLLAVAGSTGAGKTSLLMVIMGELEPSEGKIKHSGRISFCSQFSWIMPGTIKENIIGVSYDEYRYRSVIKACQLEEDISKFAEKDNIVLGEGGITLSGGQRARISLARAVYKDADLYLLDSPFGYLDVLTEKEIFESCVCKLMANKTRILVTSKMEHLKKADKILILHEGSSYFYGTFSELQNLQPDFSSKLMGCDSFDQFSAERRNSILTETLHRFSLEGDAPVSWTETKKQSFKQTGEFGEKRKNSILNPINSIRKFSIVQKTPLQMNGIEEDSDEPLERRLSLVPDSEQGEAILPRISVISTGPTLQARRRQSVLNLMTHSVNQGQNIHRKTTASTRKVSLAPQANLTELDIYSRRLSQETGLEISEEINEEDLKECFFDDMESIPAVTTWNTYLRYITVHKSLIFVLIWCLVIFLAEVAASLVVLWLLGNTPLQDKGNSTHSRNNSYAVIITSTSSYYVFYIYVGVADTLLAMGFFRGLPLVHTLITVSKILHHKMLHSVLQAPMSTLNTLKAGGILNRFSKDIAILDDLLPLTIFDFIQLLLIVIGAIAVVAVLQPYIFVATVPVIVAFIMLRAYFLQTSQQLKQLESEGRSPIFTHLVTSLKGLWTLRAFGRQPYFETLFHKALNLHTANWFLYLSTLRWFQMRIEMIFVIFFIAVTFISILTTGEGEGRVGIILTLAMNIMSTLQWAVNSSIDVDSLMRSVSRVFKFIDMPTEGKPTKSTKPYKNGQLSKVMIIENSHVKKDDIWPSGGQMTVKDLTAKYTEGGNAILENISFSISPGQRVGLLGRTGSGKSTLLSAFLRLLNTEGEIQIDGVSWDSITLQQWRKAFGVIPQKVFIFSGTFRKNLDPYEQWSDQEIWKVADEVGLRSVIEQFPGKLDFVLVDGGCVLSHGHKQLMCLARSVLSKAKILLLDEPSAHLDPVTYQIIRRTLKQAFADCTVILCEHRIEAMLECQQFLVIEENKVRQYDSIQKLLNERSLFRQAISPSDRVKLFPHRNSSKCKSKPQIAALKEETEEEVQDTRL

EC50	Maximum % activity	SMILES
> 20000 nM	8.1%	COc1ccc2c(c1)O[C@@H](c1ccc(C(=O)O)cc1)C[C@H]2NC(=O)C1(c2cccc(F)c2)CCCC1 [Example 90, 4-[(2R,4R)-4-{[1-(3-fluorophenyl)cyclopentane-1-carbonyl]amino}-7-methoxy-3,4-dihydro-2H-1-benzopyran-2-yl]benzoic acid]
> 20000 nM	5.0%	COc1ccc2c(c1)O[C@@H](c1ccc(C(=O)O)cc1)C[C@H]2NC(=O)C1(c2ccccc2F)CCCC1 [Example 91, 4-[(2R,4R)-4-{[1-(2-fluorophenyl)cyclopentane-1-carbonyl]amino}-7-methoxy-3,4-dihydro-2H-1-benzopyran-2-yl]benzoic acid]
350 nM	62.0%	COc1ccc2c(c1)O[C@@H](c1ccc(C(=O)O)cc1)C[C@H]2NC(=O)C1(c2ccc(C#N)cc2)CC1 [Example 92, 4-[(2R,4R)-4-{[1-(4-cyanophenyl)cyclopropane-1-carbonyl]amino}-7-methoxy-3,4-dihydro-2H-1-benzopyran-2-yl]benzoic acid]
> 20000 nM	5.7%	COc1ccc2c(c1)O[C@@H](c1ccc(C(=O)O)cc1)C[C@H]2NC(=O)C1(c2ccc(F)cc2)CCCC1 [Example 93, 4-[(2R,4R)-4-{[1-(4-fluorophenyl)cyclopentane-1-carbonyl]amino}-7-methoxy-3,4-dihydro-2H-1-benzopyran-2-yl]benzoic acid]
2630 nM	49.0%	COc1ccc2c(c1)O[C@@H](c1ccc(C(=O)O)cc1)C[C@H]2NC(=O)C1(c2ccccc2Br)CCC1 [Example 94, 4-[(2R,4R)-4-{[1-(2-bromophenyl)cyclobutane-1-carbonyl]amino}-7-methoxy-3,4-dihydro-2H-1-benzopyran-2-yl]benzoic acid]
1330 nM	76.0%	COc1ccc2c(c1)O[C@@H](c1ccc(C(=O)O)cc1)C[C@H]2NC(=O)C1(c2ccc(Cl)c(Cl)c2)CCC1 [Example 95, 4-[(2R,4R)-4-{[1-(3,4-dichlorophenyl)cyclobutane-1-carbonyl]amino}-7-methoxy-3,4-dihydro-2H-1-benzopyran-2-yl]benzoic acid]
3010 nM	33.0%	COc1ccc2c(c1)O[C@@H](c1ccc(C(=O)O)cc1)C[C@H]2NC(=O)C1(c2ccccc2Cl)CCC1 [Example 96, 4-[(2R,4R)-4-{[1-(2-chlorophenyl)cyclobutane-1-carbonyl]amino}-7-methoxy-3,4-dihydro-2H-1-benzopyran-2-yl]benzoic acid]
> 20000 nM	2.5%	COc1ccc2c(c1)O[C@@H](c1ccc(C(=O)O)cc1)C[C@H]2NC(=O)C1(c2ccccc2)CCCC1 [Example 97, 4-{(2R,4R)-7-methoxy-4-[(1-phenylcyclopentane-1-carbonyl)amino]-3,4-dihydro-2H-1-benzopyran-2-yl}benzoic acid]
> 20000 nM	13.0%	COc1ccc2c(c1)O[C@@H](c1ccc(C(=O)O)cc1)C[C@H]2NC(=O)C1(c2ccc(Cl)cc2)CCCC1 [Example 98, 4-[(2R,4R)-4-{[1-(4-chlorophenyl)cyclopentane-1-carbonyl]amino}-7-methoxy-3,4-dihydro-2H-1-benzopyran-2-yl]benzoic acid]
> 20000 nM	15.9%	COc1ccc2c(c1)O[C@@H](c1ccc(C(=O)O)cc1)C[C@H]2NC(=O)C(C)(C)Oc1ccc2c(c1)OCO2 [Example 99, 4-[(2R,4R)-4-{2-[(2H-1,3-benzodioxol-5-yl)oxy]-2-methylpropanamido}-7-methoxy-3,4-dihydro-2H-1-benzopyran-2-yl]benzoic acid]
480 nM	55.3%	COc1ccc2c(c1)CC[C@@]2(C)C(=O)N[C@@H]1C[C@H](c2ccc(C(=O)O)cc2)Oc2cc(OC)ccc21 [Example 100, 4-[(2R,4R)-7-methoxy-4-{[(1R)-5-methoxy-1-methyl-2,3-dihydro-1H-indene-1-carbonyl]amino}-3,4-dihydro-2H-1-benzopyran-2-yl]benzoic acid]
660 nM	46.0%	COc1ccc2c(c1)O[C@@H](c1ccc(C(=O)O)cc1)C[C@H]2NC(=O)C1(c2cccc(Cl)c2)CC1 [Example 101, 4-[(2R,4R)-4-{[1-(3-chlorophenyl)cyclopropane-1-carbonyl]amino}-7-methoxy-3,4-dihydro-2H-1-benzopyran-2-yl]benzoic acid]
> 20000 nM	18.1%	COc1ccc2c(c1)O[C@@H](c1ccc(C(=O)O)cc1)C[C@H]2NC(=O)C1(c2ccccc2)CCC1 [Example 102, 4-{(2R,4R)-7-methoxy-4-[(1-phenylcyclobutane-1-carbonyl)amino]-3,4-dihydro-2H-1-benzopyran-2-yl}benzoic acid]
4010 nM	29.0%	COc1ccc2c(c1)O[C@@H](c1ccc(C(=O)O)cc1)C[C@H]2NC(=O)C1(c2ccccc2OC)CC1 [Example 103, 4-[(2R,4R)-7-methoxy-4-{[1-(2-methoxyphenyl)cyclopropane-1-carbonyl]amino}-3,4-dihydro-2H-1-benzopyran-2-yl]benzoic acid]
1560 nM	71.0%	COc1ccc2c(c1)O[C@@H](c1ccc(C(=O)O)cc1)C[C@H]2NC(=O)C1(c2ccc(Br)cc2)CCC1 [Example 104, 4-[(2R,4R)-4-{[1-(4-bromophenyl)cyclobutane-1-carbonyl]amino}-7-methoxy-3,4-dihydro-2H-1-benzopyran-2-yl]benzoic acid]
1290 nM	46.0%	COc1ccc2c(c1)O[C@@H](c1ccc(C(=O)O)cc1)C[C@H]2NC(=O)C1(c2ccccc2F)CC1 [Example 106, 4-[(2R,4R)-4-{[1-(2-fluorophenyl)cyclopropane-1-carbonyl]amino}-7-methoxy-3,4-dihydro-2H-1-benzopyran-2-yl]benzoic acid]
1320 nM	22.4%	COc1ccc2c(c1)O[C@@H](c1ccc(C(=O)O)cc1)C[C@H]2NC(=O)C(C)(C)Oc1ccc(C#N)cc1 [Example 107, 4-{(2R,4R)-4-[2-(4-cyanophenoxy)-2-methylpropanamido]-7-methoxy-3,4-dihydro-2H-1-benzopyran-2-yl}benzoic acid]
170 nM	77.7%	COc1ccc2c(c1)O[C@@H](c1ccc(C(=O)O)cc1)C[C@H]2NC(=O)C1(c2ccc(Cl)cc2)CC1 [Example 108, 4-[(2R,4R)-4-{[1-(4-chlorophenyl)cyclopropane-1-carbonyl]amino}-7-methoxy-3,4-dihydro-2H-1-benzopyran-2-yl]benzoic acid]
1360 nM	93.0%	COc1ccc2c(c1)O[C@@H](c1ccc(C(=O)O)cc1)C[C@H]2NC(=O)C(C)(C)c1ccc(OC(F)(F)F)cc1 [Example 109, 4-[(2R,4R)-7-methoxy-4-{2-methyl-2-[4-(trifluoromethoxy)phenyl]propanamido}-3,4-dihydro-2H-1-benzopyran-2-yl]benzoic acid]
310 nM	85.0%	COc1ccc2c(c1)O[C@@H](c1ccc(C(=O)O)cc1)C[C@H]2NC(=O)C(C)(C)c1ccc(Cl)cc1 [Example 110, 4-{(2R,4R)-4-[2-(4-chlorophenyl)-2-methylpropanamido]-7-methoxy-3,4-dihydro-2H-1-benzopyran-2-yl}benzoic acid]
840 nM	47.7%	COc1ccc2c(c1)O[C@@H](c1ccc(C(=O)O)cc1)C[C@H]2NC(=O)C(C)(C)c1ccc(F)cc1 [Example 111, 4-{(2R,4R)-4-[2-(4-fluorophenyl)-2-methylpropanamido]-7-methoxy-3,4-dihydro-2H-1-benzopyran-2-yl}benzoic acid]
360 nM	59.9%	COc1ccc2c(c1)O[C@@H](c1ccc(C(=O)O)cc1)C[C@H]2NC(=O)C(C)(C)c1ccc2c(c1)OCCO2 [Example 112, 4-{(2R,4R)-4-[2-(2,3-dihydro-1,4-benzodioxin-6-yl)-2-methylpropanamido]-7-methoxy-3,4-dihydro-2H-1-benzopyran-2-yl}benzoic acid]
60 nM	43.5%	COc1ccc2c(c1)O[C@@H](c1ccc(C(=O)O)cc1)C[C@H]2NC(=O)C(C)(C)c1ccc(OC)c(F)c1 [Example 113, 4-{(2R,4R)-4-[2-(3-fluoro-4-methoxyphenyl)-2-methylpropanamido]-7-methoxy-3,4-dihydro-2H-1-benzopyran-2-yl}benzoic acid]
> 20000 nM	2.2%	COc1ccc(C2(C(=O)N[C@@H]3C[C@H](c4ccc(C(=O)O)cc4)Oc4cc(OC)ccc43)CCCC2)cc1 [Example 114, 4-[(2R,4R)-7-methoxy-4-{[1-(4-methoxyphenyl)cyclopentane-1-carbonyl]amino}-3,4-dihydro-2H-1-benzopyran-2-yl]benzoic acid]
630 nM	69.8%	COc1ccc(C2(C(=O)N[C@@H]3C[C@H](c4ccc(C(=O)O)cc4)Oc4cc(OC)ccc43)CCC2)cc1 [Example 115, 4-[(2R,4R)-7-methoxy-4-{[1-(4-methoxyphenyl)cyclobutane-1-carbonyl]amino}-3,4-dihydro-2H-1-benzopyran-2-yl]benzoic acid]
3250 nM	27.6%	COc1ccc2c(c1)O[C@@H](c1ccc(C(=O)O)cc1)C[C@H]2NC(=O)C1(c2ccc(OC)c(OC)c2)CCC1 [Example 116, 4-[(2R,4R)-4-{[1-(3,4-dimethoxyphenyl)cyclobutane-1-carbonyl]amino}-7-methoxy-3,4-dihydro-2H-1-benzopyran-2-yl]benzoic acid]
